# Test results reported in patent publication US9695155B2, “Herbicidal substituted pyrimidinyloxy benzene compounds” (E. I. DU PONT DE NEMOURS AND COMPANY, priority 2013, dated 2017).
# Key:
# barnyardgrass [1] = assay: Test C preemergence; type: in vivo, Echinochloa crus-galli; conditions: for Barnyardgrass plant response rating: preemergence; for Plant response rating, Barnyardgrass: Preemergence, 31 g ai/ha, scale 0 to 100, 0 no effect, 100 complete control
# Summary of the method: (§1)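 Seeds are planted in blended loam soil and sand and treated preemergence, while seedlings in a peat moss/vermiculite medium receive postemergence sprays at 2 to 18 cm height. All plants stay in the greenhouse for 13 to 15 days before visual comparison with controls on a 0–100 scale.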
# blackgrass = assay: Test C preemergence; type: in vivo, Alopecurus myosuroides; conditions: for Blackgrass plant response rating: preemergence; for Plant response rating, Blackgrass: Preemergence, 31 g ai/ha, scale 0 to 100, 0 no effect, 100 complete control
# Summary of the method: as §1
# lambsquarters = assay: Test C preemergence; type: in vivo, Chenopodium album; conditions: for Lambsquarters plant response rating: preemergence
# Summary of the method: as §1
# Italian ryegrass [2] = assay: Test C postemergence; type: in vivo, Lolium multiflorum; conditions: for Plant response rating (0 to 100), Ryegrass, Italian: 16 g ai/ha, 0 is no effect, 100 is complete control; for Plant response rating, Ryegrass, Italian: scale 0 to 100 (0 no effect, 100 complete control)
# Summary of the method: as §1
# velvetleaf = assay: Test C preemergence; type: in vivo, Abutilon theophrasti; conditions: for Velvetleaf plant response rating: preemergence
# Summary of the method: as §1
# soybean = assay: Test C postemergence; type: in vivo, Glycine max; conditions: for Plant response rating (0 to 100), Soybean: 16 g ai/ha, 0 is no effect, 100 is complete control; for Plant response rating, Soybean: scale 0 to 100 (0 no effect, 100 complete control)
# Summary of the method: as §1
# pigweed = assay: Test A postemergence; type: in vivo, Amaranthus retroflexus; conditions: 0 to 100 scale where 0 is no effect and 100 is complete control; for Pigweed plant response rating: 125 g ai/ha; for Plant response rating, Pigweed: 500 g ai/ha
# Summary of the method: (§2)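 Visual 0–100 rating (100 = complete control) taken about 10 d post-treatment relative to untreated checks. Preemergence: directed soil spray on sown loam/sand pots. Postemergence: seedlings 2–10 cm, 1–2 leaf. Non-phytotoxic solvent formulation with surfactant.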
# Italian ryegrass [3] = assay: Test C preemergence; type: in vivo, Lolium multiflorum; conditions: for Ryegrass, Italian plant response rating: preemergence
# Summary of the method: as §1
# johnsongrass = assay: Test C postemergence; type: in vivo, Sorghum halepense; conditions: for Plant response rating (0 to 100), Johnsongrass: 16 g ai/ha, 0 is no effect, 100 is complete control; for Plant response rating, Johnsongrass: scale 0 to 100 (0 no effect, 100 complete control)
# Summary of the method: as §1
# Heteranthera limosa = assay: Test B flooded paddy test; type: in vivo; conditions: Flood, 250 g ai/ha; 0 to 100 scale where 0 is no effect and 100 is complete control
# Summary of the method: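 Seedlings are raised to two leaves, flooded to a depth of 3 cm and dosed by adding the compound to the floodwater. Water level is kept constant, and plants are scored visually versus controls 13–15 days later (0 = no effect, 100 = complete control).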
# giant foxtail [4] = assay: Test A postemergence; type: in vivo, Setaria faberii; conditions: 0 to 100 scale where 0 is no effect and 100 is complete control; for Foxtail, Giant plant response rating: 125 g ai/ha; for Plant response rating, Foxtail, Giant: 500 g ai/ha
# Summary of the method: as §2
# giant foxtail [5] = assay: Test A preemergence; type: in vivo, Setaria faberii; conditions: 0 to 100 scale where 0 is no effect and 100 is complete control; for Plant response rating, Foxtail, Giant: 125 g ai/ha; for Foxtail, Giant plant response rating: 500 g ai/ha
# Summary of the method: as §2
# wheat, winter = assay: Test C preemergence; type: in vivo, Triticum aestivum; conditions: for Wheat plant response rating: preemergence
# Summary of the method: as §1
# barnyardgrass [6] = assay: Test A postemergence; type: in vivo, Echinochloa crus-galli; conditions: 0 to 100 scale where 0 is no effect and 100 is complete control; for Barnyardgrass plant response rating: 125 g ai/ha; for Plant response rating, Barnyardgrass: 500 g ai/ha
# Summary of the method: as §2
# [7] = 16 g ai/ha, scale 0 to 100 (0 no effect, 100 complete control)
# [8] = 62 g ai/ha, scale 0 (no effect) to 100 (complete control)
# [9] = 125 g ai/ha, scale 0 (no effect) to 100 (complete control)
# [10] = Preemergence, 31 g ai/ha, scale 0 to 100, 0 no effect, 100 complete control
# [11] = 125 g ai/ha, postemergence, visual rating
smiles,measurement,setting,value
Clc1cnc(Oc2cccc(Br)c2-n2cc(Br)nn2)nc1 [Compound 129],Barnyardgrass plant response rating,barnyardgrass [1]; [7],5
same,Barnyardgrass plant response rating,barnyardgrass [1]; [8],40
same,Barnyardgrass plant response rating,barnyardgrass [1]; [9],90
same,"Plant response rating, Barnyardgrass",barnyardgrass [1],15
same,Blackgrass plant response rating,blackgrass; [7],0
same,Blackgrass plant response rating,blackgrass; [8],5
same,Blackgrass plant response rating,blackgrass; [9],90
same,"Plant response rating, Blackgrass",blackgrass,50
same,Lambsquarters plant response rating,lambsquarters; [7],50
same,Lambsquarters plant response rating,lambsquarters; [8],100
same,Lambsquarters plant response rating,lambsquarters; [9],100
same,"Plant response rating, Lambsquarters",lambsquarters; [10],40
same,"Plant response rating (0 to 100), Ryegrass, Italian",Italian ryegrass [2]; postemergence,0
same,"Plant response rating, Ryegrass, Italian",Italian ryegrass [2]; [11],5
same,"Plant response rating, Ryegrass, Italian","Italian ryegrass [2]; Postemergence, 62 g ai/ha",20
same,Velvetleaf plant response rating,velvetleaf; [7],35
same,Velvetleaf plant response rating,velvetleaf; [8],100
same,Velvetleaf plant response rating,velvetleaf; [9],100
same,"Plant response rating, Velvetleaf",velvetleaf; [10],70
same,"Plant response rating (0 to 100), Soybean",soybean; postemergence,35
same,"Plant response rating, Soybean",soybean; [11],60
same,"Plant response rating, Soybean","soybean; Postemergence, 62 g ai/ha",85
same,Pigweed plant response rating,pigweed,100
same,"Plant response rating, Pigweed",pigweed,100
same,"Ryegrass, Italian plant response rating",Italian ryegrass [3]; [7],0
same,"Ryegrass, Italian plant response rating",Italian ryegrass [3]; [8],10
same,"Ryegrass, Italian plant response rating",Italian ryegrass [3]; [9],35
same,"Plant response rating, Ryegrass, Italian",Italian ryegrass [3]; [10],0
same,"Plant response rating (0 to 100), Johnsongrass",johnsongrass; postemergence,5
same,"Plant response rating, Johnsongrass",johnsongrass; [11],5
same,"Plant response rating, Johnsongrass","johnsongrass; Postemergence, 62 g ai/ha",5
same,"Plant response rating, Ducksalad",Heteranthera limosa,65
same,"Foxtail, Giant plant response rating",giant foxtail [4],90
same,"Plant response rating, Foxtail, Giant",giant foxtail [4],100
same,"Plant response rating, Foxtail, Giant",giant foxtail [5],100
same,"Foxtail, Giant plant response rating",giant foxtail [5],100
same,Wheat plant response rating,"wheat, winter; [7]",0
same,Wheat plant response rating,"wheat, winter; [8]",0
same,Wheat plant response rating,"wheat, winter; [9]",15
same,"Plant response rating, Wheat","wheat, winter; [10]",0
same,Barnyardgrass plant response rating,barnyardgrass [6],90
same,"Plant response rating, Barnyardgrass",barnyardgrass [6],90
Cc1cnc(Oc2cccc(C#N)c2-n2cc(I)cn2)nc1 [Compound 136],Barnyardgrass plant response rating,barnyardgrass [1]; [7],0
same,Barnyardgrass plant response rating,barnyardgrass [1]; [8],60
same,Barnyardgrass plant response rating,barnyardgrass [1]; [9],100
same,"Plant response rating, Barnyardgrass",barnyardgrass [1],10
same,Blackgrass plant response rating,blackgrass; [7],0
same,Blackgrass plant response rating,blackgrass; [8],75
same,Blackgrass plant response rating,blackgrass; [9],80
same,"Plant response rating, Blackgrass",blackgrass,0
same,Lambsquarters plant response rating,lambsquarters; [8],80
same,Lambsquarters plant response rating,lambsquarters; [9],100
same,"Plant response rating (0 to 100), Ryegrass, Italian",Italian ryegrass [2]; postemergence,0
same,"Plant response rating, Ryegrass, Italian",Italian ryegrass [2]; [11],0
same,"Plant response rating, Ryegrass, Italian","Italian ryegrass [2]; Postemergence, 62 g ai/ha",0
same,Velvetleaf plant response rating,velvetleaf; [7],5
same,Velvetleaf plant response rating,velvetleaf; [8],30
same,Velvetleaf plant response rating,velvetleaf; [9],90
same,"Plant response rating (0 to 100), Soybean",soybean; postemergence,35
same,"Plant response rating, Soybean",soybean; [11],90
same,"Plant response rating, Soybean","soybean; Postemergence, 62 g ai/ha",75
same,Pigweed plant response rating,pigweed,80
same,"Plant response rating, Pigweed",pigweed,100
same,"Ryegrass, Italian plant response rating",Italian ryegrass [3]; [7],0
same,"Ryegrass, Italian plant response rating",Italian ryegrass [3]; [8],0
same,"Ryegrass, Italian plant response rating",Italian ryegrass [3]; [9],15
same,"Plant response rating (0 to 100), Johnsongrass",johnsongrass; postemergence,0
same,"Plant response rating, Johnsongrass","johnsongrass; Postemergence, 62 g ai/ha",0
same,"Plant response rating, Ducksalad",Heteranthera limosa,70
same,"Foxtail, Giant plant response rating",giant foxtail [4],30
same,"Plant response rating, Foxtail, Giant",giant foxtail [4],90
same,"Plant response rating, Foxtail, Giant",giant foxtail [5],60
same,"Foxtail, Giant plant response rating",giant foxtail [5],100
same,Wheat plant response rating,"wheat, winter; [7]",0
same,Wheat plant response rating,"wheat, winter; [8]",0
same,Wheat plant response rating,"wheat, winter; [9]",0
same,Barnyardgrass plant response rating,barnyardgrass [6],30
same,"Plant response rating, Barnyardgrass",barnyardgrass [6],90
